pIC50: −log10 of the molar value. Like-named read-outs stand apart in the source and are kept apart here.
Legend:
[1] = target: T1, human BRD4 bromodomain II (Homo sapiens, UniProt O60885); assay: Bromodomain binding assay (AlphaScreen), BRD4 BDII
T1 construct: human BRD4 bromodomain II [based on Genbank NM_058243, residues 349-460]; host or cells: E. coli
Procedure, shortened: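 Read-out is AlphaScreen signal (ex 680 nm, em 520-620 nm) from streptavidin donor beads on a biotinylated acetylated histone H4 (aa 1-21) peptide and nickel acceptor beads on the His6-tagged bromodomain. IC50 values come from curve fits of percentage peptide binding against compound concentration.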

[2] = system: human SKM-1 acute myeloid leukemia cells; assay: SKM-1 antiproliferation cell-based assay (ATPlite); conditions: Homo sapiens
Procedure, shortened: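 Log-phase cells in RPMI 1640/15% FBS were seeded at 34722 cells/mL and exposed for 4 days to nine-concentration DMSO serial dilutions in triplicate. Viability was read as ATP luminescence (ATPlite 1step), and IC50 values came from variable-slope non-linear regression.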

[3] = AlphaScreen assay, Table C2, read-out: BRD4 BDII IC50
[4] = SKM-1, 96 h, SKM-1 antiproliferation assay, 4 days, Table C2
[5] = BRD4 BDII AlphaScreen assay, read-out: BRD4 BD2 IC50
[6] = SKM-1, SKM-1 antiproliferation assay

CN(C)[C@H]1CCCN(c2cncc(-c3cc(F)cc(-c4ccc(-n5ccn(C)c5=O)c(Cl)c4)c3O)c2)C1 [Example 501, (S)-1-(3-chloro-3′-(5-(3-(dimethylamino)piperidin-1-yl)pyridin-3-yl)-5′-fluoro-2′-hydroxy-[1,1′-biphenyl]-4-yl)-3-methyl-1H-imidazol-2(3H)-one]
pIC50 [1, 3]: 9.00 to 11.00
GI50 [2, 4]: 0.3 to 30 nM

CC(C)N1CC2CN(c3cccc(-c4cc(F)cc(-c5ccc(-n6ccn(C)c6=O)c(Cl)c5)c4O)c3)CC2C1 (stereo not shown) [Example 946, 1-(3-chloro-5′-fluoro-2′-hydroxy-3″-(5-isopropylhexahydropyrrolo[3,4-c]pyrrol-2(1H)-yl)-[1,1′:3′,1″-terphenyl]-4-yl)-3-methyl-1,3-dihydro-2H-imidazol-2-one]
pIC50 [1, 5]: 8.00 to 9.00
GI50 [2, 6]: 30 to 300 nM

CC(=O)NC1(C)CCN(c2cc(-c3cc(F)cc(-c4ccc(-n5ccn(C)c5=O)c(Cl)c4)c3O)ccn2)C1 (stereo not shown) [Example 782, N-(1-(4-(3′-chloro-5-fluoro-2-hydroxy-4′-(3-methyl-2-oxo-2,3-dihydro-1H-imidazol-1-yl)-[1,1′-biphenyl]-3-yl)pyridin-2-yl)-3-methylpyrrolidin-3-yl)acetamide]
pIC50 [1, 3]: 9.00 to 11.00
GI50 [2, 4]: 30 to 300 nM

CCC(=O)Nc1cc(-c2cc(F)cc(-c3ccc(-n4ccn(C)c4=O)c(Cl)c3)c2O)cc(N2CC[C@H](N)C2)n1 [Example 523, (S)-N-(6-(3-aminopyrrolidin-1-yl)-4-(3′-chloro-5-fluoro-2-hydroxy-4′-(3-methyl-2-oxo-2,3-dihydro-1H-imidazol-1-yl)-[1,1′-biphenyl]-3-yl)pyridin-2-yl)propionamide]
pIC50 [1, 3]: 8.00 to 9.00
GI50 [2, 4]: 0.3 to 30 nM

CC(=O)Nc1cnc(-c2cc(F)cc(-c3cccc(N4CCN(C(C)(C)C)CC4)c3)c2O)cn1 [Example 887]
pIC50 [1, 5]: < 7.00
GI50 [2, 6]: 300 to 3000 nM

Cc1cc(-c2ccc(-n3ccn(C)c3=O)c(Cl)c2)c(O)c(-c2ccnc(N3CC[C@](C)(O)C3)c2)n1 [Example 995, (S)-1-(2-chloro-4-(3-hydroxy-2′-(3-hydroxy-3-methylpyrrolidin-1-yl)-6-methyl-[2,4′-bipyridin]-4-yl)phenyl)-3-methyl-1H-imidazol-2(3H)-one]
pIC50 [1, 5]: 8.00 to 9.00
GI50 [2, 6]: 0.3 to 30 nM

Cn1ccn(-c2ccc(-c3cc(F)cc(-c4ccnc(C5CCCNC5)c4)c3O)cc2Cl)c1=O (stereo not shown) [Example 654, 1-(3-chloro-5′-fluoro-2′-hydroxy-3′-(2-(piperidin-3-yl)pyridin-4-yl)-[1,1′-biphenyl]-4-yl)-3-methyl-1H-imidazol-2(3H)-one]
pIC50 [1, 3]: 9.00 to 11.00
GI50 [2, 4]: 0.3 to 30 nM

Cn1ccn(-c2ccc(-c3cc(F)cc(-c4ccnc(N5CC6CNC6C5)c4)c3O)cc2Cl)c1=O (stereo not shown) [Example 656, 1-(3′-(2-(3,6-diazabicyclo[3.2.0]heptan-3-yl)pyridin-4-yl)-3-chloro-5′-fluoro-2′-hydroxy-[1,1′-biphenyl]-4-yl)-3-methyl-1H-imidazol-2(3H)-one]
pIC50 [1, 3]: 9.00 to 11.00
GI50 [2, 4]: 0.3 to 30 nM

CC(=O)N(C)C1(c2cccc(-c3cc(F)cc(-c4ccc(-n5ccn(C)c5=O)c(Cl)c4)c3O)c2)CC1 [Example 794, N-(1-(3″-chloro-5′-fluoro-2′-hydroxy-4″-(3-methyl-2-oxo-2,3-dihydro-1H-imidazol-1-yl)-[1,1′:3′,1″-terphenyl]-3-yl)cyclopropyl)-N-methylacetamide]
pIC50 [1, 3]: 7.00 to 8.00
GI50 [2, 4]: 300 to 3000 nM

COc1cc(-c2ccc(-n3ccn(C)c3=O)c(Cl)c2)c(O)c(-c2cccc(N3CCN(C(C)(C)C)CC3)c2)n1 [Example 1028, 1-(4-(2-(3-(4-(tert-Butyl)piperazin-1-yl)phenyl)-3-hydroxy-6-methoxypyridin-4-yl)-2-chlorophenyl)-3-methyl-1H-imidazol-2(3H)-one]
pIC50 [1, 5]: 8.00 to 9.00
GI50 [2, 6]: 0.3 to 30 nM

CC(=O)Nc1ccc(-c2cccc(-c3ccnc(N4CC5(CNC5)C4)c3)c2O)cc1Cl [Example 283, N-(3′-(2-(2,6-diazaspiro[3.3]heptan-2-yl)pyridin-4-yl)-3-chloro-2′-hydroxy-[1,1′-biphenyl]-4-yl)acetamide]
pIC50 [1, 3]: 7.00 to 8.00
GI50 [2, 4]: 300 to 3000 nM

CC(=O)Nc1ccc(-c2cccc(-c3cc(OC4CCC(N)CC4)nc(N4CCNCC4)c3)c2O)cc1F (stereo not shown) [Example 375, N-(3′-(2-((4-aminocyclohexyl)oxy)-6-(piperazin-1-yl)pyridin-4-yl)-3-fluoro-2′-hydroxy-[1,1′-biphenyl]-4-yl)acetamide]
pIC50 [1, 3]: 7.00 to 8.00
GI50 [2, 4]: 300 to 3000 nM

COc1cc(-c2ccnc(N3CCNCC3)c2)c(O)c(-c2ccc(N3CCN(C)C3=O)c(Cl)c2)c1 [Example 312, l-(3-chloro-2′-hydroxy-5′-methoxy-3′-(2-(piperazin-1-yl)pyridin-4-yl)-[1,1′-biphenyl]-4-yl)-3-methylimidazolidin-2-one]
pIC50 [1, 3]: 8.00 to 9.00
GI50 [2, 4]: 30 to 300 nM

C[C@@H]1CN(c2cc(-c3cc(F)cc(-c4ccc(-n5ccn(C)c5=O)c(Cl)c4)c3O)cc3c2ccn3C)CCN1 [Example 579, (R)-1-(3-chloro-5′-fluoro-2′-hydroxy-3′-(1-methyl-4-(3-methylpiperazin-1-yl)-1H-indol-6-yl)-[1,1′-biphenyl]-4-yl)-3-methyl-1H-imdazol-2(3H)-one]
pIC50 [1, 3]: 9.00 to 11.00
GI50 [2, 4]: 0.3 to 30 nM

C[C@@H]1CN(c2cc(-c3cc(F)cc(-c4ccc(-n5ccn(C)c5=O)c(Cl)c4)c3O)cnn2)CCN1 [Example 650, (R)-1-(3-chloro-5′-fluoro-2′-hydroxy-3′-(6-(3-methylpiperazin-1-yl)pyridazin-4-yl)-[1,1′-biphenyl]-4-yl)-3-methyl-1H-imidazol-2(3H)-one]
pIC50 [1, 3]: 9.00 to 11.00
GI50 [2, 4]: 0.3 to 30 nM

Cn1ccn(-c2ccc(-c3cc(F)cc(-c4ccc(F)c(N5CCN(C(C)(C)C)CC5)c4)c3O)cc2Cl)c1=O [Example 719, 1-(3″-(4-(tert-butyl)piperazin-1-yl)-3-chloro-4″,5′-difluoro-2′-hydroxy-[1,1′:3′,1″-terphenyl]-4-yl)-3-methyl-1H-imidazol-2(3H)-one]
pIC50 [1, 3]: 9.00 to 11.00
GI50 [2, 4]: 0.3 to 30 nM

CC(C)N1C2CCC1CN(c1cncc(-c3cc(F)cc(-c4ccc(-n5ccn(C)c5=O)c(Cl)c4)c3O)c1)C2 [Example 740, 1-(3-chloro-5′-fluoro-2′-hydroxy-3′-(5-(8-isopropyl-3,8-diazabicyclo[3.2.1]octan-3-yl)pyridin-3-yl)-[1,1′-biphenyl]-4-yl)-3-methyl-1H-imidazol-2(3H)-one]
pIC50 [1, 3]: 9.00 to 11.00
GI50 [2, 4]: 0.3 to 30 nM

Cn1ccn(-c2ccc(-c3cc(F)cc(-c4cc(N5CCNCC5)c5cn[nH]c5c4)c3O)cc2Cl)c1=O [Example 526, 1-(3-chloro-5′-fluoro-2′-hydroxy-3′-(4-(piperazin-1-yl)-1H-indazol-6-yl)-[1,1′-biphenyl]-4-yl)-3-methyl-1H-imidazol-2(3H)-one]
pIC50 [1, 3]: 8.00 to 9.00
GI50 [2, 4]: 0.3 to 30 nM

CNc1ncc(-c2nccc(-c3ccc(-n4ccn(C)c4=O)c(Cl)c3)c2O)cc1N1CCN(C(C)(C)C)CC1 [Example 986, 1-(4-(5′-(4-(tert-butyl)piperazin-1-yl)-3-hydroxy-6′-(methylamino)-[2,3′-bipyridin]-4-yl)-2-chlorophenyl)-3-methyl-1H-imidazol-2(3H)-one]
pIC50 [1, 5]: 8.00 to 9.00
GI50 [2, 6]: 0.3 to 30 nM

Cn1ccn(-c2ccc(-c3cc(F)cc(-c4ccnc(N5CCC(C)(C(N)=O)C5)c4)c3O)cc2Cl)c1=O (stereo not shown) [Example 773, 1-(4-(3′-chloro-5-fluoro-2-hydroxy-4′-(3-methyl-2-oxo-2,3-dihydro-1H-imidazol-1-yl)-[1,1′-biphenyl]-3-yl)pyridin-2-yl)-3-methylpyrrolidine-3-carboxamide]
pIC50 [1, 3]: 8.00 to 9.00
GI50 [2, 4]: 30 to 300 nM
